From patent publication US4737510A, “Bioactive metabolites from the caribbean sponge agelas coniferin” (priority 1986, dated 1988)
Values joined by “and” are separate entries in the source; they are usually repeats but may differ in a detail not shown here. Equal entries are not always repeated. Where two headings read alike, the source gives them in different places.

What was measured:
[1] = tested on: Monkey Kidney Cells (CV-1); experiment: Cytotoxicity to monkey kidney cells (CV-1) determined by Dr. R. G. Hughes, Jr.; conditions: 8 or less essentially indicates noncytotoxicity
[2] = tested on: Balanus amphitrite amphitrite; experiment: Barnacle settlement assay, facilitation; assay type: in vivo, Balanus amphitrite amphitrite (barnacle); conditions: Amphibalanus amphitrite
[3] = tested on: E. coli strain BR339; assay type: cell-based
[4] = tested on: Escherichia coli; experiment: Disc diffusion antimicrobial assay, Escherichia coli; assay type: cell-based; conditions: for zone of inhibition at 10 µg/disc / zone of inhibition at 50 µg/disc / zone of inhibition at 100 µg/disc: Escherichia coli, 6.5 mm disc, read-out: diameter of the clear zone of inhibition; for zone of inhibition at 50 µg/disc: 50 μg/disk
[5] = tested on: Balanus amphitrite amphitrite; experiment: Barnacle settlement assay, inhibition; assay type: in vivo, Balanus amphitrite amphitrite (barnacle); conditions: Amphibalanus amphitrite
[6] = tested on: Bacillus subtilis; experiment: Disc diffusion antimicrobial assay, Bacillus subtilis; assay type: cell-based; conditions: for zone of inhibition at 10 µg/disc / zone of inhibition at 50 µg/disc / zone of inhibition at 100 µg/disc: Bacillus subtilis, 6.5 mm disc, read-out: diameter of the clear zone of inhibition; for zone of inhibition at 50 µg/disc: 50 μg/disk; for zone of inhibition at 100 µg/disc: 100 μg/disk
[7] = tested on: vesicular stomatitis virus (VSV); experiment: microbe, parasite or virus in culture; assay type: cell-based; conditions: for zone of inhibition at 20 µg/disc / zone of inhibition at 50 µg/disc / zone of inhibition at 100 µg/disc / zone of inhibition at 200 µg/disc: Vesicular stomatitis virus, in Primates
[8] = tested on: Herpes Simplex Virus type 1 (HSV-1); experiment: Antiviral activity against HSV-1 determined by Dr. R. G. Hughes, Jr.;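 also: grades: +++ strong ++ moderate + light ± questionable - negative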; assay type: cell-based
[9] = tested on: Herpes simplex virus, type I (HSV-1); experiment: microbe, parasite or virus in culture; assay type: cell-based; conditions: for zone of inhibition at 20 µg/disc / zone of inhibition at 50 µg/disc / zone of inhibition at 100 µg/disc / zone of inhibition at 200 µg/disc: Human alphaherpesvirus 1, in Primates
[10] = tested on: monkey kidney (CV-1) cells; experiment: Cytotoxicity to monkey kidney (CV-1) cells
[11] = tested on: vesicular stomatitus virus (VSV); assay type: cell-based; conditions: 100 μg/disk
[12] = Stability of isolated solids; assay type: physicochemical; conditions: diacetate salts, amorphous solids
[13] = Water solubility (in words); assay type: physicochemical; conditions: relative to 1a-6a
[14] = tested on: serotonergic receptor; conditions: cited from earlier work
[15] = tested on: KB carcinoma; conditions: cited from earlier work
[16] = read-out: antiviral activity, VSV, ++ scale
[17] = read-out: antiviral activity, VSV, zone diameter
[18] = read-out: antiviral activity, HSV-1, ++ scale
[19] = read-out: antiviral activity, HSV-1, zone diameter

## Nc1ncc([C@@H]2[C@@H](CNC(=O)c3cc(Br)c[nH]3)[C@H](CNC(=O)c3cc(Br)c[nH]3)[C@H]2c2cnc(N)[nH]2)[nH]1 (relative stereo) [Compound 2a, Sceptrin Acetate]
[1]; 25 μg/disk
  cytotoxicity, zone diameter: 5 mm
[1]; 50 μg/disk
  cytotoxicity, zone diameter: 5 mm
[1]; 100 μg/disk
  cytotoxicity, zone diameter: 7 mm
[2]
  EC50: 0.029 µg/mL
[3]
  BIA activity: inducers
  BIA activity, numerical color intensity scale 0-10: 9 and 6
[4]; 10 μg/disk
  activity against Escherichia coli: active
  zone of inhibition at 10 µg/disc: 7 mm
[4]
  zone of inhibition at 50 µg/disc: 10 mm
[4]; 100 μg/disk
  zone of inhibition at 100 µg/disc: 11 mm
[5]
  EC50: 44 µg/mL
[6]; 10 μg/disk
  growth inhibition of Bacillus subtilis: most active
  zone of inhibition at 10 µg/disc: 9 mm
[6]
  zone of inhibition at 50 µg/disc: 16 mm
  zone of inhibition at 100 µg/disc: 17 mm
[7]; [16]
  zone of inhibition at 20 µg/disc: 7 mm
  zone of inhibition at 50 µg/disc: 8 to 10 mm
  zone of inhibition at 100 µg/disc: 11 to 15 mm
  zone of inhibition at 200 µg/disc: 11 to 15 mm
[7]; [17]
  zone of inhibition at 20 µg/disc: 7 mm
  zone of inhibition at 50 µg/disc: 8 mm
  zone of inhibition at 100 µg/disc: 11 mm
  zone of inhibition at 200 µg/disc: 13 mm
[8]; 25 μg/disk
  HSV-1 activity: -
[8]; 50 μg/disk
  HSV-1 activity: +++
[8]; 100 μg/disk
  HSV-1 activity: ++
[9]; [18]
  zone of inhibition at 20 µg/disc: 11 to 15 mm
  zone of inhibition at 50 µg/disc: 11 to 15 mm
  zone of inhibition at 100 µg/disc: 11 to 15 mm
  zone of inhibition at 200 µg/disc: > 16 mm
[9]; [19]
  zone of inhibition at 20 µg/disc: 11 mm
  zone of inhibition at 50 µg/disc: 13 mm
  zone of inhibition at 100 µg/disc: 13 mm
  zone of inhibition at 200 µg/disc: 21 mm

## Nc1ncc(C2c3nc(N)[nH]c3CC(CNC(=O)c3cc(Br)c(Br)[nH]3)C2CNC(=O)c2cc(Br)c(Br)[nH]2)[nH]1 (centres unmarked) [Compound 6a, Dibromoageliferin Acetate]
[1]; 25 μg/disk
  cytotoxicity, zone diameter: 6 mm
[1]; 50 μg/disk
  cytotoxicity, zone diameter: 8 mm
[1]; 100 μg/disk
  cytotoxicity, zone diameter: 10 mm
[3]
  BIA activity, numerical color intensity scale 0-10: 2
[4]; 10 μg/disk
  zone of inhibition at 10 µg/disc: 0 mm
[4]
  zone of inhibition at 50 µg/disc: 7 mm
[4]; 100 μg/disk
  zone of inhibition at 100 µg/disc: 7 mm
[6]; 10 μg/disk
  zone of inhibition at 10 µg/disc: 8 mm
[6]
  zone of inhibition at 50 µg/disc: 9 mm
  zone of inhibition at 100 µg/disc: 9 mm
[7]; [16]
  zone of inhibition at 20 µg/disc: < 7 mm
  zone of inhibition at 50 µg/disc: 8 to 10 mm
  zone of inhibition at 100 µg/disc: 8 to 10 mm
  zone of inhibition at 200 µg/disc: 8 to 10 mm
[7]; [17]
  zone of inhibition at 20 µg/disc: 0 mm
  zone of inhibition at 50 µg/disc: 8 mm
  zone of inhibition at 100 µg/disc: 9 mm
  zone of inhibition at 200 µg/disc: 10 mm
[10]; all concentrations (200, 100, 50, 20 μg/disk)
  traces of cytotoxicity, zone: ≤ 8 mm
[8]; 25 μg/disk
  HSV-1 activity: -
[8]; 50 μg/disk
  HSV-1 activity: ±
[8]; 100 μg/disk
  HSV-1 activity: ±
[9]; [18]
  zone of inhibition at 20 µg/disc: 8 to 10 mm
  zone of inhibition at 50 µg/disc: 11 to 15 mm
  zone of inhibition at 100 µg/disc: 11 to 15 mm
  zone of inhibition at 200 µg/disc: 11 to 15 mm
[9]; [19]
  zone of inhibition at 20 µg/disc: 9 mm
  zone of inhibition at 50 µg/disc: 11 mm
  zone of inhibition at 100 µg/disc: 11 mm
  zone of inhibition at 200 µg/disc: 12 mm

## NC1=NC(=O)C(C2C(CNC(=O)c3ccc[nH]3)C(CNC(=O)c3cc(Br)c[nH]3)C2c2cnc(N)[nH]2)N1 (centres unmarked) [Compound 7a, Debromooxysceptrin Acetate]
[1]; 25 μg/disk
  cytotoxicity, zone diameter: 5 mm
[1]; 50 μg/disk
  cytotoxicity, zone diameter: 5 mm
[1]; 100 μg/disk
  cytotoxicity, zone diameter: 6 mm
[11]
  VSV activity: ±
[3]
  BIA activity: somewhat less active
  BIA activity, numerical color intensity scale 0-10: 4
  BIA zone appearance: more diffuse zone
[4]; 100 μg/disk
  activity against Escherichia coli: inactive
  zone of inhibition at 100 µg/disc: 0 mm
[4]; 10 μg/disk
  zone of inhibition at 10 µg/disc: 0 mm
[4]
  zone of inhibition at 50 µg/disc: 0 mm
[6]; 10 μg/disk
  zone of inhibition at 10 µg/disc: 0 mm
[6]
  zone of inhibition at 50 µg/disc: 7 mm
  zone of inhibition at 100 µg/disc: 8 mm
[7]; 200 μg/disk
  activity against VSV: essentially inactive
[7]; [16]
  zone of inhibition at 200 µg/disc: < 7 mm
[7]; [17]
  zone of inhibition at 200 µg/disc: 0 mm
[10]; 200 μg/disk
  traces of cytotoxicity, zone: ≤ 8 mm
[12]
  stability: stable
[8]; 25 μg/disk
  HSV-1 activity: -
[8]; 50 μg/disk
  HSV-1 activity: -
[8]; 100 μg/disk
  HSV-1 activity: -
[13]
  water solubility: more water soluble
[9]
  activity against HSV-1: essentially inactive
  antiviral zone appearance: diffuse zones
[9]; [18]
  zone of inhibition at 20 µg/disc: < 7 mm
  zone of inhibition at 50 µg/disc: < 7 mm
  zone of inhibition at 100 µg/disc: < 7 mm
  zone of inhibition at 200 µg/disc: 8 to 10 mm
[9]; [19]
  zone of inhibition at 20 µg/disc: 0 mm
  zone of inhibition at 50 µg/disc: 0 mm
  zone of inhibition at 100 µg/disc: 0 mm

## Cn1c(/C=C\CNC(=O)c2cc(Br)c[nH]2)cnc1N [Keramidine]
[14]
  serotonergic receptor activity: serotonergic receptor antagonist

## N=C(N)NC(=O)c1cc(Br)c[nH]1 [N-amidino-4-bromopyrrole-2-carboxamide]
[15]
  effect on KB carcinoma: KB carcinoma-altering
